Data taken from a melting point compilation (Tetko et al.; mined from patent text by program, amines drawn as free bases though some values may be those of a salt).

With `CC(C)(C)OC(=O)N1CCC(c2ccc(N3C[C@H](CN=[N+]=[N-])OC3=O)cc2F)CC1` the melting point was 109 to 110 °C.
Compound `COC(=O)c1cc(C(=O)OC)c(Br)cn1` has a melting point of 102 to 104 °C.
Compound `CC(NC(=O)Nc1ccc(CN2C(=O)C3CCCC3N(C(=O)CN3C(=O)c4ccccc4C3=O)c3ccccc32)cc1)c1ccccc1` (stereo not given) has a melting point of 156 to 160 °C.
With `O=C1c2ccc(C#Cc3ccccc3)cc2C(=O)N1c1ccc2c(c1)C=C2` the melting point was 194 to 195 °C.
`COc1c(Br)c(-c2cc(C(C)C)n(C)n2)cc2oc(=O)c(C)c(C)c12` showed a melting point of 177 to 179 °C.
`CCOC(=O)C(CC(C)C)NC(=O)N1CCc2cc(S(=O)(=O)N3CCN(c4cccc(Cl)c4)CC3)ccc21` (stereo not given) gave a melting point of 76 to 77 °C.
In the case of `O=C=Nc1ccc(N2CCOCC2)cc1`, the melting point is reported as 221 to 225 °C.
Work on `CC(C)(O)CCCCCc1ccc(C=Cc2ccc(CO)c(CO)c2)cc1` yielded a melting point of 112 to 114 °C.
For `COc1ccc(-c2ccc(-c3nc(-c4ccc(C(F)(F)F)cc4)oc3C)cc2)cc1`, the melting point was 167 to 168 °C.
In the case of `CCOC(=O)c1cc2c(C)c(F)ccc2[nH]1`, the melting point is reported as 148 to 149 °C.
`CCc1ccccc1OC(CC)C(=O)OC1CC(O)C=C2C=CC(C)C(CCC3CC(O)CC(=O)O3)C21` (mixture of isomers) gave a melting point of 108 to 110 °C.
For `COc1cccc(OCc2ccc(C(=O)N(C)C3CCCCC3)cc2)c1`, the melting point was 90.4 °C.
`COc1ccc(SC#N)c([N+](=O)[O-])c1` showed a melting point of 127 to 128 °C.
`CC(C)(C)OC(=O)NC(COCc1ccccc1)c1nc2c(C(F)(F)F)cccc2c(O)c1C(=O)Nc1nccs1` (stereo not given) gave a melting point of 208 °C.
In the case of `CN(C)c1nc(N)ncc1Cc1ccccc1`, the melting point is reported as 181 to 182 °C.
For `Cc1ccc(S(=O)(=O)c2ccccc2[N+](=O)[O-])cc1`, the melting point was 155 to 156 °C.
Work on `Cc1noc(NS(=O)(=O)c2cccc3cccnc23)c1Br` yielded a melting point of 169 to 171 °C.
For `COc1cccc2c1CN(c1c(F)c(F)c3c(=O)c(C(=O)O)cn(C4CC4)c3c1F)C2`, the melting point was > 280 °C.
With `COC(=O)c1cc(C(=O)Nc2ccncc2)c2cc(Cc3ccc(F)cc3)cnc2c1O` the melting point was 266 to 267 °C.
In the case of `CCOC(=O)c1cn(C)c2cc(C(C)(C)C)ccc2c1=O`, the melting point is reported as 138 to 140 °C.
Compound `CC(CN1CCCC1)N1c2ccccc2Sc2ccc(C(N)=S)cc21` (racemic) has a melting point of 150 °C.
With `COc1ccc(CCN(CCc2cccc(C(F)(F)F)c2)C(=O)CCCCC(N)=O)cc1OC` the melting point was 125 to 126 °C.
For `Cc1cc(C)cc(S(=O)(=O)n2c(CCCC(=O)O)cc3nc(Cl)ccc32)c1`, the melting point was 200 °C.
`Fc1cccc(NC2CN([C@H]3CC[C@@H](c4c[nH]c5ccc(F)cc54)CC3)C2)c1` gave a melting point of 67 to 70 °C.
With `CCCCCCC(O)CCCCCCCCCCC(=O)OC` (stereo not given) the melting point was 58 °C.
For `CN1C(=O)c2ccccc2C2(CC(=O)NC2=O)C1=O` (stereo not given), the melting point was 224 to 225 °C.
`Ic1ccc2c(c1)ncn2-c1cccc(-c2ccccn2)c1` showed a melting point of 157 to 158 °C.
For `Cc1cc2cc(CN3CCOCC3)cnc2cc1NC(=O)c1ccc(-c2ccc(F)cc2)cc1`, the melting point was 153 to 158 °C.
With `CC(OCc1cc2cc(C(F)(F)F)ccc2n1S(=O)(=O)c1ccccc1)C(=O)O` (stereo not given) the melting point was 72 to 74 °C.
For `CCc1nc2c(N)nc3ccccc3c2o1`, the melting point was 175 to 178 °C.
For `NC(=O)c1nc(-c2cccc(O)c2)nc2c1[nH]c(=O)n2-c1ccccc1Oc1ccccc1`, the melting point was 329 to 331 °C.
`CCCc1nn(C)c2c(=O)[nH]c(Cc3cccc(N)c3)nc12` showed a melting point of 207 to 210 °C.
For `Clc1ccc(C2(Cn3cncn3)OC2c2ccc(Cl)cc2Cl)cc1` (stereo not given), the melting point was 119 °C.
Compound `CNC(=S)NCCCc1ncco1` has a melting point of 43 to 45 °C.
With `CC1(O)OC(=O)C(c2c(F)cc(F)cc2F)=C1c1ccc2ccccc2c1` (stereo not given) the melting point was 164 to 165 °C.
Work on `CCC(NS(C)(=O)=O)c1ccc(Cl)c2nc3n(c12)CCCN3c1ccc(Cl)cc1Cl` (stereo not given) yielded a melting point of 125 to 126 °C.
With `CCOC(=O)Nc1cc([N+](=O)[O-])cc(CC)c1C(=O)O` the melting point was 121 to 123 °C.
`O=S(=O)(Nc1ncnc(Cl)c1Cc1ccc2ccccc2c1)c1ccc(Cl)cc1` gave a melting point of 197 to 199 °C.
With `O=Cc1ccc(O)c(OCc2ccccc2)c1Cl` the melting point was 149 to 150 °C.
For `O=[N+]([O-])C=C1CN=C(c2ccccc2F)c2cc(I)ccc2N1`, the melting point was 214 to 216 °C.
`CCCC1=C(C(=O)OCC)C(c2cccc([N+](=O)[O-])c2)C(C(=O)OCC)=C(CCC)N1COCC` gave a melting point of 109 to 110 °C.
In the case of `COc1ccc(-c2ccc(OC3SCC(O)C(O)C3O)cn2)cn1` (stereo not given), the melting point is reported as 167 °C.
`O=C(O)CCc1cc2cc(Cl)ccc2n1S(=O)(=O)c1ccc(Oc2ccccc2)cc1` gave a melting point of 70 to 75 °C.
With `CC1CC(=O)NN=C1c1ccc2c(c1)N=CS2=O` (stereo not given) the melting point was 317 to 319 °C.
Compound `Cc1c(C)c2c(c(C)c1O)CCC(C)(C(=S)Nc1cc(C(C)(C)C)c(O)c(C(C)(C)C)c1)O2` (stereo not given) has a melting point of 172 to 174 °C.
For `CN(C)C(=S)SCC(c1cccc2ccccc12)[N+](=O)[O-]` (stereo not given), the melting point was 136 to 138 °C.
Compound `Cc1cccc(Cl)c1NC(=O)CN1CCN(CCCC(c2ccc(F)cc2)c2ccc(F)cc2)C(CO)C1` (stereo not given) has a melting point of 150 °C.
For `C#CC1(Oc2ccccc2[N+](=O)[O-])CCN(C(C)=O)CC1`, the melting point was 112 to 115 °C.
`Cc1cc(-c2nc3cccnn3c2-c2ccnc(NC(=O)c3ccc(Cl)cc3)c2)ccc1F` gave a melting point of 207 to 209 °C.
Work on `Cc1cc2c(-c3cccc(/C=C/c4nnn[nH]4)c3)c(CC(=O)Nc3ccc(F)cc3C(F)(F)F)c(=O)oc2cc1Cl` yielded a melting point of 216 to 218 °C.
`CC(C)COC[C@H](CC(C)C)NC(=O)[C@H]1O[C@@H]1C(=O)OC(C)(C)C` showed a melting point of 73.5 to 74.5 °C.
`CCCCCCNc1ccc(Oc2ccc3nc(COc4ccc(CC5SC(=O)NC5=O)cc4)n(C)c3c2)cc1` (stereo not given) gave a melting point of 177 to 179 °C.
`CCCNS(=O)(=O)c1c(C)cc(C)cc1C` gave a melting point of 53 to 54 °C.
`NC(=O)c1cccc(OCCOC2CCNCC2)c1` showed a melting point of 144 to 146 °C.
`COC(=O)C(=CN(C)C)C(=O)c1cc(F)c(Cl)cc1Cl` gave a melting point of 107 to 109 °C.
`Cc1cccc(COc2cccc(OCc3ccc(C(C)(C)C)cc3)c2)c1C(=O)O` gave a melting point of 122 to 123 °C.
`CCn1ncc2c(Cl)cc(-c3ccccc3)nc21` showed a melting point of 43 to 45 °C.
Work on `CC(=O)Nc1cc([N+](=O)[O-])ccc1OCC(C)O` (stereo not given) yielded a melting point of 123 °C.
`O=C(CCl)c1cc(Br)ccc1O` gave a melting point of 79 °C.
With `CC1=C(C(=O)N(c2ccccc2)C2CCCCCC(F)C2)CCO1` (stereo not given) the melting point was 91 °C.
`CCn1nc(C(F)(F)F)c(CS(=O)(=O)C2=NOC(C)(CCl)C2)c1C#N` (stereo not given) gave a melting point of 76 to 78 °C.
For `Cc1oc(-c2ccc(C(F)(F)F)cc2)nc1CCOc1ccc(CN(O)C(N)=O)cc1`, the melting point was 156 to 157 °C.
For `Nc1ccc2[nH]nc(-c3ccccc3)c2c1`, the melting point was 104 °C.
With `COc1ccc(C2=NN(CCCCCCN)C(=O)[C@H]3CC=CC[C@@H]23)cc1OC` (relative stereo) the melting point was 141 to 143 °C.
In the case of `CCOc1ccc2c(c1)n(C1CCCCC1)c(=O)n2S(=O)(=O)c1ccc(C(=O)Nc2nccs2)cc1OC`, the melting point is reported as 213 °C.
For `O=C1Nc2ccccc2C1CCCCN1CCN(c2ccc(F)cc2)CC1` (stereo not given), the melting point was 113 to 115 °C.
`CC(C)(C)N1CCN(Cc2ccc([N+](=O)[O-])cc2)S1(=O)=O` showed a melting point of 113 °C.
Compound `OCCCC(=C(c1ccccc1)c1ccc(O)cc1)c1ccccc1` has a melting point of 157 to 163 °C.
`Nc1nc2c(Oc3ccccc3)cccc2s1` gave a melting point of 135 to 137 °C.
`O=c1c2ccc(O)c(O)c2oc2cccc(O)c12` gave a melting point of 300 to 301 °C.
In the case of `CC(=O)SCC(Cc1ccccc1)C(=O)Nc1cccc(C(=O)OCCBr)c1` (stereo not given), the melting point is reported as 85 to 88 °C.
Compound `O=C(O)c1ccccc1N1CCN(CC(O)COc2cccc3[nH]ccc23)CC1` (stereo not given) has a melting point of 163 to 165 °C.
For `COc1ccc(OC)c2c1C(=O)C=C(SCCCCCCCCCCC(=O)NCC(C)C)C2=O`, the melting point was 74 to 75 °C.
`CCOC(=O)N(C)CC1CN(c2c(F)cc(C(=O)O)c(F)c2F)CCO1` (stereo not given) showed a melting point of 170 to 172 °C.
`CCNc1c(F)cc2c(=O)c(C(=O)O)cn(-c3cc(N)c(F)cc3F)c2c1Cl` gave a melting point of 252 to 255 °C.
In the case of `C#CCOC(C(=O)NCCc1ccc(O)c(OC)c1)c1ccc(Cl)cc1` (stereo not given), the melting point is reported as 93 to 95 °C.
Work on `CCCCOC(=O)Nc1cccc(NC(=O)C=C(C)OC)c1` yielded a melting point of 100 °C.
Compound `COC1(c2cccc(O)c2)OOC12C1CC3CC(C1)CC2C3` (stereo not given) has a melting point of 135 °C.
For `Clc1ccc2c(c1)-c1nnnn1-c1ccccc1O2`, the melting point was 209 to 211 °C.
For `COC(=O)c1cc(Cl)cc(C(F)(F)F)n1`, the melting point was 62 to 63 °C.
With `COc1ccc(CC(CSC(C)=O)C(=O)Nc2cccc(C(=O)O)c2)cc1` (stereo not given) the melting point was 124 to 126 °C.
Compound `CCCCCC(CC(=O)Nc1cc(C(N)=O)ccc1C(C)(C)C)c1ccc(OCCC(N)S(C)(=O)=O)cc1OC` (stereo not given) has a melting point of 77 to 79 °C.
`CCOc1cc(C)c(Cl)cc1S(N)(=O)=O` gave a melting point of 153 to 155 °C.
For `Cc1nn(CC(F)COCc2ccccc2)c(-c2ccc(F)cc2)c1-c1ccc2c(c1)NC(=O)CO2` (stereo not given), the melting point was 138 to 140 °C.
`Cc1ccc(-c2c(C#N)n(C)c(=O)c3ncccc23)cc1` showed a melting point of 268 to 270 °C.
Work on `COc1ccc2c(c1)sc1nc(C(=O)C3CC3)cn12` yielded a melting point of 213 °C.
For `Cc1ccc(-c2nc3ccc(OCCN4CCCCC4)cc3n2-c2ccccc2)cc1C`, the melting point was 111 °C.
For `CC(C)[C@H](NC(=O)Cc1csc(N(C)C)n1)C(=O)N[C@@H](Cc1ccccc1)C[C@H](O)[C@H](Cc1ccccc1)NC(=O)Cc1cncs1`, the melting point was 162 to 165 °C.
Compound `CCOC(=O)CNCc1cccc(-c2c(CC(=O)Nc3ccc(F)cc3C(F)(F)F)c(=O)oc3cc(Cl)c(C)cc23)c1` has a melting point of 153 to 155 °C.
Work on `CN1CCN(c2cc(Cl)cc3c2c(=O)n(Cc2ccc(O)cc2)c(=O)n3Cc2ccccc2)CC1` yielded a melting point of 138 to 140 °C.
Compound `CCO[C@@H](Cc1ccc2c(ccn2Cc2nc(-c3ccccc3OC)oc2C)c1)C(=O)O` has a melting point of 59 to 60 °C.
`C=C1CCN(c2cn(-c3cccnc3)nc2Cl)C1=O` gave a melting point of 117 to 118 °C.
With `Cc1oc2cc(C3CCNC(=O)C3)ccc2c1C` (stereo not given) the melting point was 195 to 197 °C.
Work on `COc1cc(Br)c2nc(-c3ccc(OC)c(F)c3)cc(Cl)c2c1` yielded a melting point of 176 to 177 °C.
With `CC(NC(=O)OCc1ccccc1)C(=O)N1CC(=O)N(CC(N)=O)C1(C)C` (stereo not given) the melting point was 206 to 210 °C.
